This is an account of results in patent publication US20260265233A1, “BENZOTHIOPHENE DERIVATIVES AS RXFP1 AGONISTS” (BRISTOL-MYERS SQUIBB COMPANY, priority 2021, published 2026).

This assay has as its target T1, human RXFP1 (Homo sapiens, UniProt Q9HBX9).
T1 construct: expressed in transfected cells
T1 sequence (Q9HBX9 1-757): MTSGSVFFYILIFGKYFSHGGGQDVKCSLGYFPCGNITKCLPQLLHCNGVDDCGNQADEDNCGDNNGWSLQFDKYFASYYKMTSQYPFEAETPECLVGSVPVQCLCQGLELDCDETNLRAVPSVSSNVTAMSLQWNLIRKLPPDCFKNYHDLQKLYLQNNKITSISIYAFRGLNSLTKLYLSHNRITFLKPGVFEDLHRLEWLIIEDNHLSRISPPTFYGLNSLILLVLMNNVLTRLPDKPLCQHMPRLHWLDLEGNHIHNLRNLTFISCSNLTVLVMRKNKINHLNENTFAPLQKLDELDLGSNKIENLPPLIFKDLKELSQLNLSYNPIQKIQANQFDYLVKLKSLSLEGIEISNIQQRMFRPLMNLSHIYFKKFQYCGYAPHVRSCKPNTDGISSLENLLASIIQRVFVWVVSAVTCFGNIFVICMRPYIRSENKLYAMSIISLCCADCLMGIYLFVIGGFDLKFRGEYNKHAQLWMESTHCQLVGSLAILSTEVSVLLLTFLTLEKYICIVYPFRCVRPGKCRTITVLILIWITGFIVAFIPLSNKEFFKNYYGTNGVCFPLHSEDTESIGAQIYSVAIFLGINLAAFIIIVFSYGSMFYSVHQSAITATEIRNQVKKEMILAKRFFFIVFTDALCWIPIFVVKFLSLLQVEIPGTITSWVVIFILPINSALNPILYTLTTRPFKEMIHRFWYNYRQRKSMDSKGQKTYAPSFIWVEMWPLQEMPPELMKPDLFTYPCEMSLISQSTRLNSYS
Put plainly: hRXFP1 HEK293 cAMP assay (HTRF). It counts as cell-based. As to conditions: HEK293 cells stably expressing human RXFP1; 30 min at rt; intracellular cAMP by HTRF. On the procedure:
RXFP1 Cyclic Adenosine Monophosphate (cAMP) Assays. Human embryonic kidney cells 293 (HEK293) cells and HEK293 cells stably expressing human RXFP1, were cultured in MEM medium supplemented with 10% qualified FBS, and 300 μg/ml hygromycin (Life Technologies). Cells were dissociated and suspended in assay buffer. The assay buffer was HBSS buffer (with calcium and magnesium) containing 20 mM HEPES, 0.05% BSA, and 0.5 mM IBMX. Cells (3000 cells per well, except 1500 cell per well for HEK293 cells stably expressing human RXFP1) were added to 384-well Proxiplates (Perkin-Elmer). Cells were immediately treated with test compounds in DMSO (2% final) at final concentrations in the range of 0.010 nM to 50 μM. Cells were incubated for 30 min at rt. The level of intracellular cAMP was determined using the HTRF HiRange cAMP assay reagent kit (Cisbio) according to manufacturer's instructions. Solutions of cryptate conjugated anti-cAMP and d2 fluorophore-labelled cAMP were made in a supplied lysis buffer separately. Upon completion of the reaction, the cells were lysed with equal volume of the d2-cAMP solution and anti-cAMP solution. After a 1 h rt incubation, time-resolved fluorescence intensity was measured using the Envision (Perkin-Elmer) at 400 nm excitation and dual emission at 590 nm and 665 nm. A calibration curve was constructed with an external cAMP standard at concentrations ranging from 2.7 μM to 0.1 pM by plotting the fluorescent intensity ratio from 665 nm emission to the intensity from the 590 nm emission against cAMP concentrations. The potency and activity of a compound to […] cAMP production was then determined by fitting to a 4-parametric logistic equation from a plot of cAMP level versus compound concentrations.
The examples disclosed below were tested in the human RXFP1 (hRXFP1) HEK293 cAMP assay described above and found to have agonist activity.
As for `COc1ccc(C2CC2C(=O)NC2CCOCC2)cc1C(=O)Nc1c(C(=O)Nc2ccc(F)c(C(F)(F)F)c2)sc2cc(C(F)(F)F)ccc12` (single isomer, unassigned) [Example 158, N-[4-fluoro-3-(trifluoromethyl)phenyl]-3-(2-methoxy-5-{2-[(oxan-4-yl)carbamoyl]cyclopropyl}benzamido)-6-(trifluoromethyl)-1-benzothiophene-2-carboxamide], the response was half-maximal at 0.0298 µM (EC50). For `COc1ccc(N2CCCC(C(=O)NS(C)(=O)=O)C2)cc1C(=O)Nc1c(C(=O)Nc2ccc(F)c(C(F)(F)F)c2)sc2cc(C(F)(F)F)ccc12` (single isomer, unassigned) [Example 6, 1-(3-((2-((4-fluoro-3-(trifluoromethyl)phenyl)carbamoyl)-6-(trifluoromethyl)benzo[b]thiophen-3-yl)carbamoyl)-4-methoxyphenyl)-N-(methylsulfonyl) piperidine-3-carboxamide] the value was 0.349 µM; for `COc1ccc(C2=NOC3CC(NC(=O)C(C)(C)O)CC23)cc1C(=O)Nc1c(C(=O)Nc2ccc(F)c(C(F)(F)F)c2)sc2cc(C(F)(F)F)ccc12` (single isomer, unassigned) [Example 267, N-[4-fluoro-3-(trifluoromethyl)phenyl]-3-{5-[5-(2-hydroxy-2-methyl-propanamido)-3aH,4H,5H,6H, 6aH-cyclopenta[d] [1,2]oxazol-3-yl]-2-methoxy-benzamido}-6-(trifluoromethyl)-1-benzothiophene-2-carboxamide], 3.13 µM. For `COc1ccc(C2CC2C(=O)O)cc1C(=O)Nc1c(C(=O)Nc2ccc(F)c(C(F)(F)F)c2)sc2cc(C(F)(F)F)ccc12` (single isomer, unassigned) [Example 47, 2-(3-((2-((4-fluoro-3-(trifluoromethyl)phenyl)carbamoyl)-6-(trifluoromethyl)benzo[b]thiophen-3-yl)carbamoyl)-4-methoxyphenyl) cyclopropane-1-carboxylic acid] the value was 1.06 µM; for `COc1ccc(C2=NC(C(=O)N3CC(C)(O)C3)CO2)cc1C(=O)Nc1c(C(=O)Nc2ccc(F)c(C(F)(F)F)c2)sc2cc(C(F)(F)F)ccc12` (stereo not shown) [Example 280, N-[4-fluoro-3-(trifluoromethyl)phenyl]-3-{5-[4-(3-hydroxy-3-methylazetidine-1-carbonyl)-4,5-dihydro-1,3-oxazol-2-yl]-2-methoxy-benzamido}-6-(trifluoromethyl)-1-benzothiophene-2-carboxamide], 0.0441 µM.

`COc1ccc(-c2cccc(NS(C)(=O)=O)c2)cc1C(=O)Nc1c(C(=O)Nc2ccc(F)c(C(F)(F)F)c2)sc2cc(C(F)(F)F)ccc12` [Example 123, N-(4-fluoro-3-(trifluoromethyl)phenyl)-3-(4-methoxy-3′-(methylsulfon-amido)-[1,1′-biphenyl]-3-carboxamido)-6-(trifluoromethyl) benzo[b] thiophene-2-carboxamide]: it took 0.236 µM to reach a half-maximal effect (EC50).

The compound `COc1ccc(C2CCCN(C3COC3)C2)cc1C(=O)Nc1c(C(=O)Nc2ccc(F)c(C(F)(F)F)c2)sc2cc(C(F)(F)F)ccc12` (stereo not shown) [Example 84, N-(4-fluoro-3-(trifluoromethyl)phenyl)-3-(2-methoxy-5-(1-(oxetan-3-yl)piperidin-3-yl)benzamido)-6-(trifluoromethyl) benzo[b] thiophene-2-carboxamide] had an EC50 of 0.226 µM. For `CNC(=O)CN1CCCC(c2ccc(OC)c(C(=O)Nc3c(C(=O)Nc4ccc(F)c(C(F)(F)F)c4)sc4cc(C(F)(F)F)ccc34)c2)C1` (stereo not shown) [Example 78, N-(4-fluoro-3-(trifluoromethyl)phenyl)-3-(2-methoxy-5-(1-(2-(methylamino)-2-oxoethyl)piperidin-3-yl)benzamido)-6-(trifluoromethyl) benzo[b] thiophene-2-carboxamide] the value was 0.835 µM; for `COc1ccc(C2CC2C(=O)N2CC(C(C)(C)O)C2)cc1C(=O)Nc1c(C(=O)Nc2ccc(F)c(C(F)(F)F)c2)sc2cc(C(F)(F)F)ccc12` (stereo not shown) [Example 169, N-[4-fluoro-3-(trifluoromethyl)phenyl]-3-(5-{2-[3-(2-hydroxypropan-2-yl)azetidine-1-carbonyl]cyclopropyl}-2-methoxy-benzamido)-6-(trifluoromethyl)-1-benzothiophene-2-carboxamide], 2.25 µM; for `COc1ccc(C2=NOC(CO)C2)cc1C(=O)Nc1c(C(=O)Nc2ccc(F)c(C(F)(F)F)c2)sc2cc(C(F)(F)F)ccc12` (single isomer, unassigned) [Example 250, N-(4-fluoro-3-(trifluoromethyl)phenyl)-3-(5-(5-(hydroxymethyl)-4,5-dihydroisoxazol-3-yl)-2-methoxy-benzamido)-6-(trifluoromethyl) benzo[b] thiophene-2-carboxamide], 0.28 µM. For `COc1ccc(C(=O)N2CCOCC2)cc1C(=O)Nc1c(C(=O)Nc2ccc(F)c(C(F)(F)F)c2)sc2cc(C(F)(F)F)ccc12` [Example 221, N-(4-fluoro-3-(trifluoromethyl)phenyl)-3-(2-methoxy-5-(morpholine-4-carbonyl)benzamido)-6-(trifluoromethyl) benzo[b] thiophene-2-carboxamide] the value was 1.1 µM; for `COc1ccc(C2=NOC3(CCN(C(=O)CO)C3)C2)cc1C(=O)Nc1c(C(=O)Nc2ccc(F)c(C(F)(F)F)c2)sc2cc(C(F)(F)F)ccc12` (stereo not shown) [Example 278, N-[4-fluoro-3-(trifluoromethyl)phenyl]-3-{5-[7-(2-hydroxyacetyl)-1-oxa-2,7-diazaspiro[4.4]non-2-en-3-yl]-2-methoxy-benzamido}-6-(trifluoromethyl)-1-benzothiophene-2-carboxamide], 0.408 µM; for `COc1ccc(-c2cncc(NS(C)(=O)=O)c2)cc1C(=O)Nc1c(C(=O)Nc2ccc(F)c(C(F)(F)F)c2)sc2cc(C(F)(F)F)ccc12` [Example 117, N-(4-fluoro-3-(trifluoromethyl)phenyl)-3-(2-methoxy-5-(5-(methyl-sulfonamido)pyridin-3-yl)benzamido)-6-(trifluoromethyl) benzo[b] thiophene-2-carboxamide], 0.131 µM. For `COc1ccc(C2CCCN(CCS(C)(=O)=O)C2)cc1C(=O)Nc1c(C(=O)Nc2ccc(F)c(C(F)(F)F)c2)sc2cc(C(F)(F)F)ccc12` (single isomer, unassigned) [Example 86, N-(4-fluoro-3-(trifluoromethyl)phenyl)-3-(2-methoxy-5-(1-(2-(methylsulfonyl)ethyl)piperidin-3-yl)benzamido)-6-(trifluoromethyl) benzo[b] thiophene-2-carboxamide] the value was 1.15 µM; for `COc1ccc(C2CCCC(C)(O)C2)cc1C(=O)Nc1c(C(=O)Nc2ccc(F)c(C(F)(F)F)c2)sc2cc(C(F)(F)F)ccc12` (single isomer, unassigned) [Example 36, N-(4-fluoro-3-(trifluoromethyl)phenyl)-3-(5-(3-hydroxy-3-methylcyclohexyl)-2-methoxybenzamido)-6-(trifluoromethyl)benzo[b]thiophene-2-carboxamide], 0.244 µM; for `COc1ccc(C(=O)N2CC(S(C)(=O)=O)C2)cc1C(=O)Nc1c(C(=O)Nc2ccc(F)c(C(F)(F)F)c2)sc2cc(C(F)(F)F)ccc12` [Example 178, N-(4-fluoro-3-(trifluoromethyl)phenyl)-3-(2-methoxy-5-(3-(methylsulfonyl)azetidine-1-carbonyl)benzamido)-6-(trifluoromethyl) benzo[b] thiophene-2-carboxamide], 0.0052 µM.

The term EC50 denotes the concentration needed to bring the measured effect to its halfway point. High values mean weaker potency, low ones greater potency.
